Results from ChEMBL document CHEMBL1127163, “Anilide tertiary carbinols: A new structural class of potent potassium channel openers” (Bioorg Med Chem Lett, 1993).

Legend:
Cavia porcellus [1] = species: Cavia porcellus; test: The compound was tested for […] activity against guinea pig detrusor (bladder) strip mildly depolarized with 15 mM KCl; format: functional
Cavia porcellus [2] = species: Cavia porcellus; test: Tested for relaxant activity of compound with 80 mM KCl; format: functional
Cavia porcellus [3] = species: Cavia porcellus; test: Tested for percent increase in efflux rate constant with 54.6 uM of compound using guinea pig detrusor; format: functional
Cavia porcellus [4] = species: Cavia porcellus; test: The compound was tested for […] activity against guinea pig vascular tissue (portal vein) strip mildly depolarized with 15 mM KCl; format: functional
[5] = Tested for dissociation constant of compound at PH of 7.4; format: ADME; details: pH 7.4

SMILES	IC50 (Cavia porcellus [1])	IC50 (Cavia porcellus [2])	IC50 (Cavia porcellus [4])	pKa [5]	Increase (Cavia porcellus [3])
C[C@](O)(C(=O)Nc1ccc(S(=O)(=O)c2ccncc2)cc1)C(F)(F)F	1600 nM	260000 nM			40%
C[C@@](O)(C(=O)Nc1ccc(S(=O)(=O)c2ccncc2)cc1)C(F)(F)F	> 30000 nM				
CC(O)(C(=O)Nc1ccc(S(=O)(=O)c2ccncc2)cc1)C(F)(F)F (racemic)	3800 nM				

These reach a lower IC50 (Cavia porcellus [1]). Values come first.

IC50 (Cavia porcellus [1])	IC50 (Cavia porcellus [2])	IC50 (Cavia porcellus [4])	pKa [5]	SMILES	Increase (Cavia porcellus [3])
70 nM		3 nM	7.5	O=C(c1ccc(NC(=O)C(O)(C(F)F)C(F)F)cc1)c1ccccn1	
570 nM		20 nM		CC1(C)Oc2ccc(C#N)cc2[C@H](N2CCCC2=O)[C@H]1O (single isomer, unassigned) [(-)-CROMAKALIM]	
